Reference: patent US10792289B2 (Horizon Orphan LLC, priority 2009, dated 2020)

System: stable CF patients
Assay: Phase 2 study: pulmonary function (FEV1, FVC, FEF 25-75)
Assay type: in vivo, human
Design: FEF 25-75, Median / FEV1, Day 14, Mean / FEF 25-75, Mean: unit not given here; FEV1, Day 1, Mean / FEV1, Day 1, Median / FEV1, Day 14, Median / FEV1, Day 28, Mean / FEV1, Day 28, Median: unit: L
Conditions: EE population
Procedure: The following dosage regimens (as nebulizer loaded doses) were evaluated: 120 mg QD (daily); 240 mg QD (daily); and 240 mg BID (twice daily).
Efficacy endpoints including clinical endpoints, pulmonary function tests, and additional microbiological parameters were assessed as change from Day 1 to subsequent visits where the endpoint data was collected. Time to need for intravenous/oral/inhaled anti-pseudomonal antimicrobials were assessed from Day 1 until final visit using survival analysis. The primary population for efficacy analysis was the EE population, but efficacy endpoints were also analyzed using the MITT population.
Changes in FEV1 (forced expiratory volume in 1 second), FVC (forced vital capacity) and FEF 25-75 (forced expiratory flow 25-75%) from Day 1 to all subsequent visits were determined for patients. Tables 26 and 27 summarize the results for FEV1 measurements in EE and MITT populations, respectively. FIGS. 7 and 8 show graphs of percent change in FEV1 (L) and percent change in FEV1(L) vs. placebo, respectively, at Day 28 for the EET population treated with placebo, 120 mg QD, 240 mg QD, or 240 mg BID. […] Tables 28 and 29 summarize the results for predicted FEVI measurements in EE and MITT populations, respectively. Tables 30 and 31 summarize results for FEF 25-75 measurements in EE and MITT populations, respectively.

[1] = Day 1 (baseline), combined 240 mg QD and BID
[2] = Day 14, combined 240 mg QD and BID

C[C@H]1COc2c(N3CCN(C)CC3)c(F)cc3c(=O)c(C(=O)O)cn1c23 [Levofloxacin, levofloxacin]
% predicted FEV1, Day 1, Mean (120 mg QD): 54.0 % predicted
% predicted FEV1, Day 1, Median (120 mg QD): 53.0 % predicted
% predicted FEV1, Day 14, Mean (120 mg QD): 54.7 % predicted
% predicted FEV1, Day 14, Median (120 mg QD): 53.0 % predicted
% predicted FEV1, Day 28, Mean (120 mg QD): 55.0 % predicted
% predicted FEV1, Day 28, Median (120 mg QD): 52.0 % predicted
FEF 25-75, Percent Change from Baseline to Day 14, Mean (120 mg QD): 0.41%
FEF 25-75, Percent Change from Baseline to Day 14, Median (120 mg QD): 0.45%
FEF 25-75, Percent Change from Baseline to Day 28, Mean (120 mg QD): 0.73%
FEF 25-75, Percent Change from Baseline to Day 28, Median (120 mg QD): 2.70%
FEV1, Day 1, Mean (120 mg QD): 1.99
FEV1, Day 1, Median (120 mg QD): 1.87
FEV1, Day 14, Mean (120 mg QD): 2.00
FEV1, Day 14, Median (120 mg QD): 1.82
FEV1, Day 28, Mean (120 mg QD): 2.03
FEV1, Day 28, Median (120 mg QD): 1.91
FEV1, Percent Change from Baseline to Day 14, Mean (120 mg QD): 1.13%
FEV1, Percent Change from Baseline to Day 14, Median (120 mg QD): 0.56%
FEV1, Percent Change from Baseline to Day 28, Mean (120 mg QD): 1.71%
FEV1, Percent Change from Baseline to Day 28, Median (120 mg QD): 1.06%
% predicted FEV1, Day 1, Mean (240 mg BID): 48.2 % predicted
% predicted FEV1, Day 1, Median (240 mg BID): 45.5 % predicted
% predicted FEV1, Day 14, Mean (240 mg BID): 51.7 % predicted
% predicted FEV1, Day 14, Median (240 mg BID): 49.5 % predicted
% predicted FEV1, Day 28, Mean (240 mg BID): 50.5 % predicted
% predicted FEV1, Day 28, Median (240 mg BID): 49.0 % predicted
FEF 25-75, Percent Change from Baseline to Day 14, Mean (240 mg BID): 16.99%
FEF 25-75, Percent Change from Baseline to Day 14, Median (240 mg BID): 11.66%
FEF 25-75, Percent Change from Baseline to Day 28, Mean (240 mg BID): 13.11%
FEF 25-75, Percent Change from Baseline to Day 28, Median (240 mg BID): 5.71%
FEV1, Day 1, Mean (240 mg BID): 1.86
FEV1, Day 1, Median (240 mg BID): 1.70
FEV1, Day 14, Mean (240 mg BID): 2.02
FEV1, Day 14, Median (240 mg BID): 1.88
FEV1, Day 28, Mean (240 mg BID): 1.90
FEV1, Percent Change from Baseline to Day 14, Mean (240 mg BID): 8.87%
FEV1, Percent Change from Baseline to Day 14, Median (240 mg BID): 7.51%
FEV1, Percent Change from Baseline to Day 28, Mean (240 mg BID): 5.05%
FEV1, Percent Change from Baseline to Day 28, Median (240 mg BID): 4.55%
% predicted FEV1, Day 1, Mean (240 mg QD): 55.9 % predicted
% predicted FEV1, Day 1, Median (240 mg QD): 56.0 % predicted
% predicted FEV1, Day 14, Mean (240 mg QD): 57.7 % predicted
% predicted FEV1, Day 14, Median (240 mg QD): 62.0 % predicted
% predicted FEV1, Day 28, Mean (240 mg QD): 57.3 % predicted
% predicted FEV1, Day 28, Median (240 mg QD): 58.0 % predicted
FEF 25-75, Percent Change from Baseline to Day 14, Mean (240 mg QD): 9.58%
FEF 25-75, Percent Change from Baseline to Day 14, Median (240 mg QD): 4.41%
FEF 25-75, Percent Change from Baseline to Day 28, Mean (240 mg QD): 4.70%
FEF 25-75, Percent Change from Baseline to Day 28, Median (240 mg QD): 5.77%
FEV1, Day 1, Mean (240 mg QD): 2.09
FEV1, Day 1, Median (240 mg QD): 2.02
FEV1, Day 14, Mean (240 mg QD): 2.16
FEV1, Day 14, Median (240 mg QD): 2.09
FEV1, Day 28, Mean (240 mg QD): 2.13
FEV1, Day 28, Median (240 mg QD): 2.15
FEV1, Percent Change from Baseline to Day 14, Mean (240 mg QD): 3.84%
FEV1, Percent Change from Baseline to Day 14, Median (240 mg QD): 1.92%
FEV1, Percent Change from Baseline to Day 28, Mean (240 mg QD): 2.51%
FEV1, Percent Change from Baseline to Day 28, Median (240 mg QD): 1.28%
% predicted FEV1, Day 1, Mean (Combined 240 mg QD and BID): 52.1 % predicted
% predicted FEV1, Day 1, Median (Combined 240 mg QD and BID): 51.0 % predicted
% predicted FEV1, Day 14, Mean (Combined 240 mg QD and BID): 54.7 % predicted
% predicted FEV1, Day 14, Median (Combined 240 mg QD and BID): 52.0 % predicted
% predicted FEV1, Day 28, Mean (Combined 240 mg QD and BID): 54.0 % predicted
% predicted FEV1, Day 28, Median (Combined 240 mg QD and BID): 54.0 % predicted
FEF 25-75, Percent Change from Baseline to Day 14, Mean (Combined 240 mg QD and BID): 13.23%
FEF 25-75, Percent Change from Baseline to Day 14, Median (Combined 240 mg QD and BID): 8.79%
FEF 25-75, Percent Change from Baseline to Day 28, Mean (Combined 240 mg QD and BID): 8.78%
FEF 25-75, Percent Change from Baseline to Day 28, Median (Combined 240 mg QD and BID): 5.74%
FEV1, Day 1, Mean (Combined 240 mg QD and BID): 1.98
FEV1, Day 1, Median (Combined 240 mg QD and BID): 1.81
FEV1, Day 14, Mean (Combined 240 mg QD and BID): 2.09
FEV1, Day 14, Median (Combined 240 mg QD and BID): 2.03
FEV1, Day 28, Mean (Combined 240 mg QD and BID): 2.02
FEV1, Day 28, Median (Combined 240 mg QD and BID): 1.98
FEV1, Percent Change from Baseline to Day 14, Mean (Combined 240 mg QD and BID): 6.32%
FEV1, Percent Change from Baseline to Day 14, Median (Combined 240 mg QD and BID): 3.94%
FEV1, Percent Change from Baseline to Day 28, Mean (Combined 240 mg QD and BID): 3.75%
FEV1, Percent Change from Baseline to Day 28, Median (Combined 240 mg QD and BID): 2.80%
FEF 25-75, Mean (Day 1 (baseline), 120 mg QD): 1.17
FEF 25-75, Median (Day 1 (baseline), 120 mg QD): 0.98
FEF 25-75, Mean (Day 1 (baseline), 240 mg BID): 0.85
FEF 25-75, Median (Day 1 (baseline), 240 mg BID): 0.68
FEF 25-75, Mean (Day 1 (baseline), 240 mg QD): 1.22
FEF 25-75, Median (Day 1 (baseline), 240 mg QD): 1.10
FEF 25-75, Mean [1]: 1.04
FEF 25-75, Median [1]: 0.83
FEF 25-75, Mean (Day 14, 120 mg QD): 1.18
FEF 25-75, Median (Day 14, 120 mg QD): 0.99
FEF 25-75, Mean (Day 14, 240 mg BID): 1.00
FEF 25-75, Median (Day 14, 240 mg BID): 0.78
FEF 25-75, Mean (Day 14, 240 mg QD): 1.33
FEF 25-75, Median (Day 14, 240 mg QD): 1.11
FEF 25-75, Mean [2]: 1.17
FEF 25-75, Median [2]: 0.92
FEF 25-75, Mean (Day 28, 120 mg QD): 1.23
FEF 25-75, Median (Day 28, 120 mg QD): 1.03
FEF 25-75, Mean (Day 28, 240 mg BID): 0.93
FEF 25-75, Median (Day 28, 240 mg BID): 0.78
FEF 25-75, Mean (Day 28, 240 mg QD): 1.27
FEF 25-75, Median (Day 28, 240 mg QD): 1.15
FEF 25-75, Mean (Day 28, combined 240 mg QD and BID): 1.10
